The record followed here is patent US20230310445A1, “LOX ENZYME INHIBITING METHODS AND COMPOSITIONS” (ANOVIA BIOSCIENCES, INC., priority 2020, published 2023).

The target of experiment [1] is T1, Recombinant human LOXL2 (lysyl oxidase like 2) (Homo sapiens, UniProt Q9Y4K0).
T1 construct: purchased R&D systems
T1 sequence (Q9Y4K0 26-774): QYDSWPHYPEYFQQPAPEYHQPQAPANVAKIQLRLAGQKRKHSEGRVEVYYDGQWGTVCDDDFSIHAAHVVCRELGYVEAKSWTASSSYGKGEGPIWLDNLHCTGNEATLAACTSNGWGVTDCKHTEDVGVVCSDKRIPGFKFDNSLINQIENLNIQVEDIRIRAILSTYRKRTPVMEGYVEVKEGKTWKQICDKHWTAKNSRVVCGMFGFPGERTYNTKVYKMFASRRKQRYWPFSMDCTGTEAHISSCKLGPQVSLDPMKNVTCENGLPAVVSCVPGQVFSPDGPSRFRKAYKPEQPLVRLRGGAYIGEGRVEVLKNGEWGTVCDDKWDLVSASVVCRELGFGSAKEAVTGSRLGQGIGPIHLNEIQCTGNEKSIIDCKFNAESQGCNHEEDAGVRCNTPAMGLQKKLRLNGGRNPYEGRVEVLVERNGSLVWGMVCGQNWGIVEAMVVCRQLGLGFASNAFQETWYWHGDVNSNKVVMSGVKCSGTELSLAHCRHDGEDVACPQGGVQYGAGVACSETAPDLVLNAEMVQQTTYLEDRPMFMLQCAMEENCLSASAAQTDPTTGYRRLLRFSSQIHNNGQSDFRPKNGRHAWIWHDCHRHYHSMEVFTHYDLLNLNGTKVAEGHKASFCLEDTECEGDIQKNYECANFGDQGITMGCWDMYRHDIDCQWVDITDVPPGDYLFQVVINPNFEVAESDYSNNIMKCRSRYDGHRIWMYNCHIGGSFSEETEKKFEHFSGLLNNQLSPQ
Put plainly: LOXL2 inhibition assay (fluorometric, cadaverine/Amplex Red/HRP). The experiment is classed as biochemical. Particulars: IC50 class; recombinant human LOXL2, cadaverine substrate; read-out: Activity Range LOXL2. Here is the method:
(§1) The ability of compounds to inhibit one or more of the lysyl oxidases LOXL2 and/or LOXL3 was determined using a fluorometric assay. This assay measures the activity of lysyl oxidases by coupling the reaction with horseradish peroxidase-catalyzed […]. The activity assay protocol uses cadaverine as substrate that releases hydrogen peroxide upon transformation by the specific LOX family enzyme present in the sample. Hydrogen peroxide is in turn detected using a red fluorescence substrate for HRP-coupled reactions (Amplex Red Enzyme Assays, Thermo Scientific Fisher). This leads to increase in fluorescence that can be easily detected at Ex/Em=540/590 nm in a fluorescence microplate reader.
Enzymes: Recombinant human LOXL2 (lysyl oxidase like 2) and recombinant human LOXL3 (lysyl oxidase like 3) were purchased from R&D systems and assays were performed in 1.2 M urea, 50 mM sodium borate buffer pH 8.0, and 10 mM CaCl.
Reaction: Final concentration in the LOXL2 and LOXL3 assays were as following and performed in a total volume of […]:
Experimental procedure: 5 μl of freshly prepared reaction buffer were delivered to reaction wells. Compounds were resuspended in 100% DMSO at 10 mM and delivered into buffer using acoustic technology (Echo550; nanoliter range). A 3× solution of LOXL2 or LOXL3 in reaction buffer was prepared (“enzyme solution”) and 5 μL of enzyme solution was added into the reaction wells. Buffer only was added to column 1 for no protein control. Reactions were incubated for 30 minutes at 37° C. A 3×mixture of cadaverine, Amplex Red, and HRP (“Substrate/Detection Mix) was prepared and subsequently 5 μL of the mixture added to each reaction well. Progress of reactions was monitored for 60 minutes at 37° C. using Clariostar plate reader (ex 530-12, ems 600-40). For all activity assays, pan-LOX inhibitor CCT365623 (Tang et al, 2017) and LOXL2/LOXL3 inhibitor PAT-1251 (PharmaKea) were included as standards.
Data analysis: Slope of the linear portion of the progress curve was calculated using Clariostar software. Typical analysis interval was between 8-30 min, but varied between experiments. The background subtracted signals (No protein wells are considered as background) were converted to % activity relative to DMSO controls. Data was analyzed using GraphPad Prism 4 with “sigmoidal dose-response (variable slope)”; 4 parameters with Hill Slope. Constraints: Bottom=Constant equal to 0. Top=Must be less than 120.

The target of experiment [2] is T2, Bovine lysyl oxidase (LOX) (Bos taurus, UniProt P33072).
T2 construct: from tissue; host or cells: adult bovine tendon
T2 sequence (P33072 170-418): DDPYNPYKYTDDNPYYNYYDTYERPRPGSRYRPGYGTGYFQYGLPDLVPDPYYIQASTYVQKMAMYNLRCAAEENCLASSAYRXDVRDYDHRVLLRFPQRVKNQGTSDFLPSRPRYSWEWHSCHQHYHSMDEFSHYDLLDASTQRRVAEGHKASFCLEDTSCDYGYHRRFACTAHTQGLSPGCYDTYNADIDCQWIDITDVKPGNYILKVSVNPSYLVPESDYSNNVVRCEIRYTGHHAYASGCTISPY
The experiment can be described thus: LOX inhibition assay (fluorometric, cadaverine/Amplex Red/HRP). The note with it: IC50 class; bovine tendon LOX, cadaverine substrate; read-out: Activity Range LOX. The experiment is classed as biochemical. How it is done:
as §1, with “prototypic LOX” for “one or more of the lysyl oxidases LOXL2 and/or LOXL3”, “prototypic” for “the specific”, “LOX” for “LOX family”
Enzyme: Bovine lysyl oxidase (LOX) was extracted by adapting the methodology from [Kagan et al. 1979 and Borel et al. 2001.] from bovine tendon: Frozen adult bovine tendon was placed in room temperature water to defrost, and then membranes were removed and the remaining tissue cut into 1 cm pieces. The material was first passed through a course mesh meat grinder, and this mince was passed through a fine mesh grinder. The mince was homogenized in 10 v/w of buffer (16 mM sodium phosphate buffer pH 7.8, 400 mM NaCl) using a Waring blender. The homogenate was centrifuged at 15,000×g for 15 min at 4° C. After centrifugation, the supernatant was discarded and the pellets resuspended in 10 volumes of the same buffer. The mixture was blended again and centrifuged with the same settings. This time the pellets were blended in 3 volumes of extraction buffer (16 mM sodium phosphate buffer pH 7.8) and left to incubate at 4° C. for 2 h. After this time, the slurry was centrifuged with the same settings as described above. The supernatant was used in an ultrafiltration step to remove large proteins by size exclusion through a 30 kDalton filter (EMD Millipore). The filtrate was mixed with DEAE Sephadex (GE Healthcare), or passed over a MonoQ FPLC column. After two washes, one in 16 mM sodium phosphate buffer pH 7.8, 380 mM NaCl, and another in 16 mM sodium phosphate buffer pH 7.8, the proteins were eluted with 16 mM sodium phosphate pH 7.8, 10 μM CuSO4, and 4 M urea. Fractions containing Lox activity were collected and stored frozen at −70° C.
Reaction: Final concentration in the LOX assay was as following and performed in a total volume of […]:
Experimental procedure: 7 μl of freshly prepared reaction buffer were delivered to reaction wells. Compounds were resuspended in 100% DMSO at 10 mM and delivered into buffer using acoustic technology (Echo550; nanoliter range). A 2.85× solution of LOX protein in reaction buffer was prepared (“LOX solution”) and 7 μl of LOX solution was added into the reaction wells. Buffer only was added to column 1 for no protein control. Reactions were incubated for 30 minutes at 37° C. A 3.33× mixture of cadaverine, Amplex Red, and HRP (“Substrate/Detection Mix) was prepared and subsequently 6 μL of the mixture was added to each reaction well. Progress of reactions was monitored for 120 minutes at 37° C. using Clariostar plate reader (ex530-12, ems 600-40). For all activity assays, pan-LOX inhibitor CCT365623 (Tang et al, 2017) and LOXL2/LOXL3 inhibitor PAT-1251 (PharmaKea) were included as standards.
Data analysis: Slope of the linear portion of the progress curve was calculated using Clariostar software. Typical analysis interval was between 20-50 min, but varied between experiments. The background subtracted signals (No protein wells were considered as background) were converted to % activity relative to DMSO controls. Data was analyzed using GraphPad Prism 4 with “sigmoidal dose-response (variable slope)”; 4 parameters with Hill Slope. Constraints: Bottom=Constant equal to 0. Top=Must be less than 120.

SMILES strings stand for the structures.

As to `NCc1cccc(O[C@@H]2C[C@H](c3ccccc3)CN(C(=O)N3CCS(=O)(=O)CC3)C2)c1` (racemic) [Example 73, cis-(3-(3-(Aminomethyl)phenoxy)-5-phenylpiperidin-1-yl)(1,1-dioxidothiomorpholino)methanone], the IC50 in experiment [1] was 1000 to 30000 nM; in experiment [2], greater than 30 µM.

`NCc1ccnc(S(=O)(=O)N2C[C@@H](C(=O)N3CCOCC3)C[C@@H](N3CCOCC3)C2)c1` (racemic) [Example 155, cis-(1-((4-(Aminomethyl)pyridin-2-yl)sulfonyl)-5-morpholinopiperidin-3-yl)(morpholino)methanone 2,2,2-trifluoroacetate]: the IC50 in experiment [1] fell in the range of 500 to 1000 nM; in experiment [2], 1 to 30 µM.

`CS(=O)(=O)N1C[C@H](Oc2ccc(CN)cc2)C[C@H](c2ccccc2)C1` (racemic) [Example 24, cis-(4-((1-(Methylsulfonyl)-5-phenylpiperidin-3-yl)oxy)phenyl)methanamine 2,2,2-trifluoroacetate]: the IC50 in experiment [1] was 1000 to 30000 nM; in experiment [2], greater than 30 µM.

For `NCc1ccc(S(=O)(=O)N2C[C@@H](C(=O)N3CCOCC3)C[C@@H](c3ccccc3)C2)s1` [Example 13A, ((3S,5S)-1-((5-(aminomethyl)thiophen-2-yl)sulfonyl)-5-phenylpiperidin-3-yl)(morpholino)methanone], the values for the IC50 in experiment [1] and in experiment [2] were no more than 500 nM and no more than 0.5 µM, respectively.

On to `CC(N)c1cccc(S(=O)(=O)N2C[C@@H](C(=O)N3CCOCC3)C[C@@H](c3ccccc3)C2)c1` (mixture of isomers) [Example 102RAC, cis-(1-((3-(1-Aminoethyl)phenyl)sulfonyl)-5-phenylpiperidin-3-yl)(morpholino)methanone 2,2,2-trifluoroacetate], for which the IC50 in experiment [1] was greater than 30000 nM; in experiment [2], greater than 30 µM.

In the case of `CS(=O)(=O)N1C[C@@H](c2ccccc2)C[C@@H](S(=O)(=O)c2cccc(CN)c2)C1` (racemic) [Example 27, cis-(3-((1-(Methylsulfonyl)-5-phenylpiperidin-3-yl)sulfonyl)phenyl)methanamine 2,2,2-trifluoroacetate], the values for the IC50 in experiment [1] and in experiment [2] were no more than 500 nM and 1 to 30 µM, respectively.

As for `NCc1cccc(S(=O)(=O)[C@H]2C[C@H](C3CCCCC3)CN(C(=O)N3CCS(=O)(=O)CC3)C2)c1` (racemic) [Example 137T, trans-(3-((3-(Aminomethyl)phenyl)sulfonyl)-5-cyclohexylpiperidin-1-yl)(1,1-dioxidothiomorpholino)methanone], the IC50 in experiment [1] is no more than 500 nM; in experiment [2] it was greater than 30 µM.

Turning to `CS(=O)(=O)N1C[C@H](Oc2cccc(CN)c2)C[C@H](c2ccccc2)C1` (racemic) [Example 25, cis-(3-((-1-(Methylsulfonyl)-5-phenylpiperidin-3-yl)oxy)phenyl)methanamine 2,2,2-trifluoroacetate], the IC50 in experiment [1] lay within 500 to 1000 nM; in experiment [2], 1 to 30 µM.

For the molecule `NCc1ccc(S(=O)(=O)N2C[C@@H](C(=O)N3CCCCC3)C[C@@H](c3ccccc3)C2)s1` (racemic) [Example 11, cis-(1-((5-(Aminomethyl)thiophen-2-yl)sulfonyl)-5-phenylpiperidin-3-yl)(piperidin-1-yl)methanone 2,2,2-trifluoroacetate], the values for the IC50 in experiment [1] and in experiment [2] were no more than 500 nM and no more than 0.5 µM, respectively.

Turning to `CS(=O)(=O)N1CCN(C(=O)[C@H]2C[C@@H](N3CCCCC3)CN(S(=O)(=O)c3cc(CN)ccn3)C2)CC1` (racemic) [Example 149, cis-(1′-((4-(Aminomethyl)pyridin-2-yl)sulfonyl)-[1,3′-bipiperidin]-5′-yl)(4-(methylsulfonyl)piperazin-1-yl)methanone 2,2,2-trifluoroacetate], the figures for the IC50 in experiment [1] and in experiment [2] were 500 to 1000 nM and greater than 30 µM, respectively.

On to `NCc1cccc(S(=O)(=O)N2C[C@@H](C(=O)N3CCOCC3)C[C@@H](C(F)(F)F)C2)c1` (relative stereo) [Example 98, cis-(1-((3-(Aminomethyl)phenyl)sulfonyl)-5-(trifluoromethyl)piperidin-3-yl)(morpholino)methanone 2,2,2-trifluoroacetate], for which the IC50 was 1000 to 30000 nM in experiment [1] and greater than 30 µM in experiment [2].

Regarding `NCc1cccc(S(=O)(=O)N2C[C@@H](C(=O)N3CCOCC3)C[C@@H](c3ccccc3)C2)n1` (racemic) [Example 114, cis-(1-((6-(Aminomethyl)pyrid-2-yl)sulfonyl)-5-phenylpiperidin-3-yl)(morpholino)methanone], the IC50 in experiment [1] was greater than 30000 nM.
